pIC50: −log10 of the molar value. Counter-ions that a name gives are not always drawn.
Molecular target: T1, G9a (Homo sapiens, UniProt Q96KQ7)
T1 sequence (Q96KQ7 1-1210): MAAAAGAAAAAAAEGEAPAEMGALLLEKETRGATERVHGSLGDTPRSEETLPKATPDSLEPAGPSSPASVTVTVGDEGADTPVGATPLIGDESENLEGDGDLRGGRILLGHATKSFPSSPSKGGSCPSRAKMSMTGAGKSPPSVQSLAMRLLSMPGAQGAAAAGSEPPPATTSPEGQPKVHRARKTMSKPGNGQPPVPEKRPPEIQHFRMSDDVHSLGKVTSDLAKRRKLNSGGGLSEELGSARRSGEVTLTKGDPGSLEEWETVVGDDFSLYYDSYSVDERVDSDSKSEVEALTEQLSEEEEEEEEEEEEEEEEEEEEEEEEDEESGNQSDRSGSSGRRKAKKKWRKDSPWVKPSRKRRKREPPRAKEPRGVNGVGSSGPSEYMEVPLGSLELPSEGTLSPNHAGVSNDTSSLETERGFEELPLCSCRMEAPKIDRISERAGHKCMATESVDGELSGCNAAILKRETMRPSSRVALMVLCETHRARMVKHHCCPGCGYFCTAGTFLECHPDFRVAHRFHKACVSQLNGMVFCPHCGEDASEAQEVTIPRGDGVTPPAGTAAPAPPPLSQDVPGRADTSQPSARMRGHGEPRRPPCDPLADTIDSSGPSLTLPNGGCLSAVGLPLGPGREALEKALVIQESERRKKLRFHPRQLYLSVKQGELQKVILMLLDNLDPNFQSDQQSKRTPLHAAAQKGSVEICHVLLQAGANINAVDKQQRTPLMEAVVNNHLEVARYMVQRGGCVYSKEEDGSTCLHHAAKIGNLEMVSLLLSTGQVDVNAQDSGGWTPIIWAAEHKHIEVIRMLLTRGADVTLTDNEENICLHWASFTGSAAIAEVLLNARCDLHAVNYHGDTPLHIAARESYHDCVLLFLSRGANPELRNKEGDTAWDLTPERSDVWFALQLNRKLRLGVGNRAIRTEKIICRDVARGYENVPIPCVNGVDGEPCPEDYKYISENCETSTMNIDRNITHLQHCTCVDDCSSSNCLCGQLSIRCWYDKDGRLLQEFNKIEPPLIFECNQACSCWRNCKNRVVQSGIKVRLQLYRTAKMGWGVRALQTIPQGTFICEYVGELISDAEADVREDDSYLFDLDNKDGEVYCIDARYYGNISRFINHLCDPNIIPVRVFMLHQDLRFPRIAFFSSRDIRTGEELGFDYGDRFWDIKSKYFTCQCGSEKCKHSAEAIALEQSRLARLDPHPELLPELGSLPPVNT
Experiment: G9a AlphaLISA enzymatic activity assay
Assay type: biochemical
Settings: 0.15 nM G9a, 15 uM S-adenosyl-methionine, 100 nM biotinylated histone 3 peptide (1-21), 1 hour room temperature
Text: The G9a AlphaLISA assay was used to detect the methyl modifications of a biotinylated histone H3 peptide by the compounds. These modifications are done by the histone methyl transferase activity of the G9a enzyme. The assay consists of reading a chemiluminescent signal at 615 nm; this signal is generated by a laser excitation at 680 nm that transfers a reactive singlet oxygen between the donor beads and acceptor beads. Donor beads are streptavidin conjugated and bind to the biotin on the peptide. Acceptor beads are conjugated with an antibody that recognizes the specific G9a methyl mark on the peptide. If there is a methyl mark on the peptide, the acceptor beads will bind to the peptide. Upon binding, the acceptor beads will be in close proximity (<200 nm) of the donor beads and when the donor beads are excited, the transfer of the oxygen can occur and a strong signal will be generated. If there is no methyl mark, the interaction between beads will not occur and signal will be at background levels.
For the assay, the following buffer was used to set up reactions: 50 mM Tris-HCl pH9, 50 mM NaCl, 0.01% Tween-20 and 1 mM DTT (added fresh prior to starting the reactions). The assay is set up by adding a final concentration of 0.15 nM G9a, 15 uM S-adenosyl-methionine and, 100 nM biotinylated histone 3 peptide (1-21). The reaction is incubated at room temperature for 1 hour, and subsequently quenched by the addition of the acceptor beads (anti-H3k9me2 AlphaLISA acceptor beads, PerkinElmer #AL117) at a final concentration of 20 ug/mL. The acceptor beads are incubated for 1 hour. After 1 hour, the donor beads are added at a final concentration of 20 ug/mL (Alpha Streptavidin donor beads, PerkinElmer #6760002). Donor beads are incubated for 0.5 hours. Both donor and acceptor beads are resuspended in AlphaLISA 5X Epigenetics Buffer 1 Kit (PerkinElmer #AL008) prior to addition to the reaction. All manipulations and incubations with the donor and acceptor beads are done in subdued light. Signal is detected in an EnVision plate reader in Alpha mode (see ACS Med Chem Lett. 2014 Jan. 2; 5(2):205-9. doi: 10.1021/m1400496h. eCollection 2014. Discovery and development of potent and selective inhibitors of histone methyltransferase g9a.)
Percent inhibition was calculated for each compound dilution and the concentration that produced 50% inhibition was calculated. This value is presented as the IC50.

With “2-ethoxy-N-methyl-3-[3-(pyrrolidin-1-yl)propoxy]acridin-9-amine formate and 3-ethoxy-N-methyl-2-[3-(pyrrolidin-1-yl)propoxy]acridin-9-amine formate (1:1) [Entry 118]” as the molecule, how does the pIC50 read?
The pIC50 was 7.12.

How did the pIC50 turn out when CNc1c2ccccc2nc2cc(OCCCN3CCCC3)c(OC)cc12 [Entry 1, 2-methoxy-N-methyl-3-[3-(pyrrolidin-1-yl)propoxy]acridin-9-amine] was run?
Its pIC50 is 8.89.

With COc1cc2c(NC3CCOCC3)c3ccccc3nc2cc1OCCCN1CCCC1 [Entry 3, 2-methoxy-N-(oxan-4-yl)-3-[3-(pyrrolidin-1-yl)propoxy]-acridin-9-amine trifluoroacetate] as the molecule, how does the pIC50 read?
The pIC50 was 8.36.

With COc1cc2c(NC3CCN(C)CC3)c3ccccc3nc2cc1OCCCN1CCCC1 [Entry 4, 2-methoxy-N-(1-methylpiperidin-4-yl)-3-[3-(pyrrolidin-1-yl)propoxy]acridin-9-amine trifluoroacetate] as the molecule, how does the pIC50 read?
Its pIC50 is 8.96.

How did the pIC50 turn out when COc1cc2c(O)c3ccccc3nc2cc1OCCCN1CCCC1 [Entry 6, 2-methoxy-3-[3-(pyrrolidin-1-yl)propoxy]acridin-9-ol formate] was run?
The pIC50 was 7.38.

CCOc1c2ccccc2nc2cc(OCCCN3CCCC3)c(OC)cc12 [Entry 7, 9-ethoxy-2-methoxy-3-[3-(pyrrolidin-1-yl)propoxy]acridine formate] was tested. Which pIC50 did it give?
The pIC50 was 5.85.

With CNc1c2ccccc2nc2cc(OCCCN3CCCC3)c(Cl)cc12 [Entry 9, 2-chloro-N-methyl-3-[3-(pyrrolidin-1-yl)propoxy]acridin-9-amine formate] as the molecule, how does the pIC50 read?
The pIC50 was 7.58.

CNc1c2ccccc2nc2cc(OCCCN3CCCC3)ccc12 [Entry 10, N-methyl-3-[3-(pyrrolidin-1-yl)propoxy]acridin-9-amine formate] was tested. Which pIC50 did it give?
The pIC50 was 7.25.

CNc1c2ccccc2nc2cc(OCCCN3CCCC3)c(C)cc12 [Entry 11, N,2-dimethyl-3-[3-(pyrrolidin-1-yl)propoxy]acridin-9-amine formate] was tested. Which pIC50 did it give?
The pIC50 was 5.91.

How did the pIC50 turn out when CCN(CC)CCCOc1cc2nc3ccccc3c(NC)c2cc1OC [Entry 14, 3-[3-(diethylamino)propoxy]-2-methoxy-N-methylacridin-9-amine trifluoroacetate] was run?
Its pIC50 is 7.12.

COc1cc2c(NC3CCN(C(C)C)CC3)c3c(nc2cc1OCCCN1CCCC1)CCCC3 [Entry 16, 7-methoxy-N-[1-(propan-2-yl)piperidin-4-yl]-6-[3-(pyrrolidin-1-yl)propoxy]-1,2,3,4-tetrahydroacridin-9-amine trifluoroacetate] was tested. Which pIC50 did it give?
The pIC50 was 7.96.

COc1cc2cc3c(nc2cc1OCCCN1CCCC1)CCCC3 [Entry 17, 7-methoxy-6-[3-(pyrrolidin-1-yl)propoxy]-1,2,3,4-tetrahydroacridine formate] was tested. Which pIC50 did it give?
Its pIC50 is 6.29.

COc1cc2c(NC(C)C)c3c(nc2cc1OCCCN1CCCC1)CCC3 [Entry 19, 7-methoxy-N-(propan-2-yl)-6-[3-(pyrrolidin-1-yl)propoxy]-1H,2H,3H-cyclopenta[b]quinolin-9-amine formate] was tested. Which pIC50 did it give?
Its pIC50 is 8.00.

How did the pIC50 turn out when CNc1c2c(nc3cc(OCCCN4CCC(F)C4)c(OC)cc13)CCC2 (stereo not drawn) [Entry 29, 6-[3-(3-fluoropyrrolidin-1-yl)propoxy]-7-methoxy-N-methyl-1H,2H,3H-cyclopenta[b]quinolin-9-amine] was run?
Its pIC50 is 6.60.

How did the pIC50 turn out when COc1cc2c(NC3CC3)c3c(nc2cc1OCCCN1CCCC1)CCC3 [Entry 31, N-cyclopropyl-7-methoxy-6-[3-(pyrrolidin-1-yl)propoxy]-1H,2H,3H-cyclopenta[b]quinolin-9-amine trifluoroacetate] was run?
The pIC50 was 7.76.

COc1cc2c(NCC3CC3)c3c(nc2cc1OCCCN1CCCC1)CCC3 [Entry 32, N-(cyclopropylmethyl)-7-methoxy-6-[3-(pyrrolidin-1-yl)propoxy]-1H,2H,3H-cyclopenta[b]quinolin-9-amine formate] was tested. Which pIC50 did it give?
The pIC50 was 7.85.

With COc1cc2c(NCCO)c3c(nc2cc1OCCCN1CCCC1)CCC3 [Entry 34, 2-({7-methoxy-6-[3-(pyrrolidin-1-yl)propoxy]-1H,2H,3H-cyclopenta[b]quinolin-9-yl}amino)ethan-1-ol formate] as the molecule, how does the pIC50 read?
Its pIC50 is 8.12.

How did the pIC50 turn out when COCCNc1c2c(nc3cc(OCCCN4CCCC4)c(OC)cc13)CCC2 [Entry 38, 7-methoxy-N-(2-methoxyethyl)-6-[3-(pyrrolidin-1-yl)propoxy]-1H,2H,3H-cyclopenta[b]quinolin-9-amine formate] was run?
The pIC50 was 7.80.

COc1cc2c(NCC3COC3)c3c(nc2cc1OCCCN1CCCC1)CCC3 [Entry 39, 7-methoxy-N-[(oxetan-3-yl)methyl]-6-[3-(pyrrolidin-1-yl)propoxy]-1H,2H,3H-cyclopenta[b]quinolin-9-amine formate] was tested. Which pIC50 did it give?
Its pIC50 is 7.70.

COc1cc2c(Nc3ccccn3)c3c(nc2cc1OCCCN1CCCC1)CCC3 [Entry 40, N-{7-methoxy-6-[3-(pyrrolidin-1-yl)propoxy]-1H,2H,3H-cyclopenta[b]quinolin-9-yl}pyridin-2-amine formate] was tested. Which pIC50 did it give?
The pIC50 was 6.82.

How did the pIC50 turn out when COc1cc2c(NCC3(C)CC3)c3c(nc2cc1OCCCN1CCCC1)CCC3 [Entry 44, 7-methoxy-N-[(1-methylcyclopropyl)methyl]-6-[3-(pyrrolidin-1-yl)propoxy]-1H,2H,3H-cyclopenta[b]quinolin-9-amine formate] was run?
The pIC50 was 7.72.

COc1cc2c(NCc3ccccc3)c3c(nc2cc1OCCCN1CCCC1)CCC3 [Entry 46, N-benzyl-7-methoxy-6-[3-(pyrrolidin-1-yl)propoxy]-1H,2H,3H-cyclopenta[b]quinolin-9-amine formate] was tested. Which pIC50 did it give?
The pIC50 was 7.44.

How did the pIC50 turn out when COc1cc2c(NCC(F)(F)F)c3c(nc2cc1OCCCN1CCCC1)CCC3 [Entry 50, 7-methoxy-6-[3-(pyrrolidin-1-yl)propoxy]-N-(2,2,2-trifluoroethyl)-1H,2H,3H-cyclopenta[b]quinolin-9-amine trifluoroacetate] was run?
The pIC50 was 7.59.

How did the pIC50 turn out when COc1cc2c(NCC3CC3)c3c(nc2cc1OCC1CCN(C)C1)CCC3 (stereo not drawn) [Entry 52, N-(cyclopropylmethyl)-7-methoxy-6-[(1-methylpyrrolidin-3-yl)methoxy]-1H,2H,3H-cyclopenta[b]quinolin-9-amine formate] was run?
Its pIC50 is 7.19.

COc1cc2c(NC3CC(C)OC(C)C3)c3c(nc2cc1OCCCN1CCCC1)CCC3 (stereo not drawn) [Entry 53, N-(2,6-dimethyloxan-4-yl)-7-methoxy-6-[3-(pyrrolidin-1-yl)propoxy]-1H,2H,3H-cyclopenta[b]quinolin-9-amine formate] was tested. Which pIC50 did it give?
The pIC50 was 7.67.

How did the pIC50 turn out when COc1cc2c(NCc3ccccn3)c3c(nc2cc1OCCCN1CCCC1)CCC3 [Entry 54, 7-methoxy-N-[pyridin-2-yl)methyl]-6-[3-(pyrrolidin-1-yl)propoxy]-1H,2H,3H-cyclopenta[b]quinolin-9-amine formate] was run?
Its pIC50 is 7.22.

With COc1cc2c(NC3CC(OC)C3)c3c(nc2cc1OCCCN1CCCC1)CCC3 (stereo not drawn) [Entry 56, 7-methoxy-N-(3-methoxycyclobutyl)-6-[3-(pyrrolidin-1-yl)propoxy]-1H,2H,3H-cyclopenta[b]quinolin-9-amine formate] as the molecule, how does the pIC50 read?
Its pIC50 is 7.80.

Source: US11254651B2, “Histone methyltransferase inhibitors” (GLOBAL BLOOD THERAPEUTICS, INC., priority 2016, dated 2022)
